Among the data in patent US10034861B2 (priority 2016, dated 2018) are IC50 and inhibition values, retold here.

Assay [1] addresses PDE1A (Homo sapiens (Human), UniProt P54750). The assay is described as follows: biochemical. Format: biochemical. From the text: (§1) Table 1 lists the IC50 value for inhibition of PDE1 by the compounds of the invention. […] PDE1 assays are described in the Experimental Section.
Assay [2] addresses T1, PDE1C (Homo sapiens (Human), UniProt Q14123). Kind of assay: biochemical. As to conditions: read-out: PDE1C, inhibition at 10 μM.
Assay [3] has as its target PDE1B (Homo sapiens (Human), UniProt Q01064). The assay is described as follows: PDE1 inhibition assay (PDE1B). The assay is classed as biochemical. As to conditions: 15 nM tritium labelled cAMP, 1 hr at room temperature, SPA beads.
Text: as §1

For assay [4], the target named is T1, PDE1C. The assay is described as follows: biochemical. The assay is classed as biochemical.
Text: as §1

Where [5] appears, read: 15 nM tritium labelled cAMP, 1 hr at room temperature, SPA beads.

Like-named read-outs stand apart in the source and are kept apart here.

T1 sequence (Q14123 whole entry): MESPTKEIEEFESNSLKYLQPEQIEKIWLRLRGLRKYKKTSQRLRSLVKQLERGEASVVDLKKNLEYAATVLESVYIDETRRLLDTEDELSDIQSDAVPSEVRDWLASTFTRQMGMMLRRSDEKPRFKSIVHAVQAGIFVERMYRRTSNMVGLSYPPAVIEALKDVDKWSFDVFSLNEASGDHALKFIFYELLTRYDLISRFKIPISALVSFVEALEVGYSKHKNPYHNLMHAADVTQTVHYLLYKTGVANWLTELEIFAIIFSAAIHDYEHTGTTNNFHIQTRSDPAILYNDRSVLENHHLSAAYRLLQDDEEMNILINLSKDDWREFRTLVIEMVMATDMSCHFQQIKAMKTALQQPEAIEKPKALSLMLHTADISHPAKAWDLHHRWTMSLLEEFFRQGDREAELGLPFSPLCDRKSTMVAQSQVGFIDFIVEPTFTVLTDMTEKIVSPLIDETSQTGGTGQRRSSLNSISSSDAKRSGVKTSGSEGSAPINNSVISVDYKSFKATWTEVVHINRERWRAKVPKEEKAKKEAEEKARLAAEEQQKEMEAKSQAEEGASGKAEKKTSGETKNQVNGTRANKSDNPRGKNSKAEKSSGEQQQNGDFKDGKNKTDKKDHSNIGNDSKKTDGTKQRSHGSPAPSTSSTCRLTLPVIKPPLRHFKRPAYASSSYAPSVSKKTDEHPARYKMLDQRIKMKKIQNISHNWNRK
Sequence of PDE1B (Q01064 whole entry): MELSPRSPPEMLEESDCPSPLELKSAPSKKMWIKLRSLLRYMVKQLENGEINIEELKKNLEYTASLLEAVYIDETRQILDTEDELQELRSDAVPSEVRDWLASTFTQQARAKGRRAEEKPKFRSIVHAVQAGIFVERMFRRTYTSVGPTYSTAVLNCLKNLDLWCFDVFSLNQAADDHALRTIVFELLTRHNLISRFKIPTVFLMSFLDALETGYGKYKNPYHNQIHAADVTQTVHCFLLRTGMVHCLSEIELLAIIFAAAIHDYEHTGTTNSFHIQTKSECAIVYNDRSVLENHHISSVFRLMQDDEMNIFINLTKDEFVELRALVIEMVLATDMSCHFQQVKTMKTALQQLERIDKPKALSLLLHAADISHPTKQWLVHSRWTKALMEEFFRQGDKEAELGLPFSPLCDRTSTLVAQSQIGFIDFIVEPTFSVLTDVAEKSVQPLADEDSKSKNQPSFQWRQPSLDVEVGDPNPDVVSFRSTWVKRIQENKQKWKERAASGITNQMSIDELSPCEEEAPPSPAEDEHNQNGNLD
Sequence of PDE1A (P54750 whole entry): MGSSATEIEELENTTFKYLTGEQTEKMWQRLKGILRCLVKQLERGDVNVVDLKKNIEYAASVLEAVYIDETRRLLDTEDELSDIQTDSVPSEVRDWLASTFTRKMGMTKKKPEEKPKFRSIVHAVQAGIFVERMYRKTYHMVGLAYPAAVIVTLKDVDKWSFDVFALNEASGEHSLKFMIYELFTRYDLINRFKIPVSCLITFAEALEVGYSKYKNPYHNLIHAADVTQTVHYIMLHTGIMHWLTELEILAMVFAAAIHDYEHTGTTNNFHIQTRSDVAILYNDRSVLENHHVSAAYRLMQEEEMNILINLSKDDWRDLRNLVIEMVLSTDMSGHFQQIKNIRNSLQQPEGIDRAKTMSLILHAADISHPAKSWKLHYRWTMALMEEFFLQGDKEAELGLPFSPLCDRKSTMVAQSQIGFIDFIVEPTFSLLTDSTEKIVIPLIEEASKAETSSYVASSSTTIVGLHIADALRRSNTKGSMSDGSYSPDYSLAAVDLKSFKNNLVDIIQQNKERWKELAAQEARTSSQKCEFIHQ

`CCOc1ncccc1-c1cc(NC(C)c2cnn(C)c2)c2c(cnn2C)n1` (racemic) [Example 15, 5-(2-ethoxypyridin-3-yl)-1-methyl-N-(1-(1-methyl-1H-pyrazol-4-yl)ethyl)-1H-pyrazolo[4,3-b]pyridin-7-amine]: the 50% inhibitory concentration (IC50) (usually the midpoint of a concentration-inhibition curve) is 820 nM in assay [1] (setting [5]) and 200 nM in assay [3] (PDE1B, IC50 (nM)). Further, the inhibition (usually the change of the read-out against control, counted positive when it falls) at 10 µM in assay [2] is 36%.
In the case of `[2H]C([2H])([2H])COc1ncccc1-c1cc(NCc2cccnc2OC)c2c(n1)c(C)nn2C(C)C` [Example 182, 5-(2-(ethoxy-2,2,2-d3)pyridin-3-yl)-1-isopropyl-N-((2-methoxypyridin-3-yl)methyl)-3-methyl-1H-pyrazolo[4,3-b]pyridin-7-amine], the half-maximal inhibitory concentration (IC50) is 61 nM in assay [4]; 24 nM in assay [1]; 1.1 nM in assay [3] (PDE1B, IC50 (nM)).
For `COc1ncccc1CNc1cc(-c2cccnc2C(F)(F)F)nc2c(C)nn(C(C)C)c12` [Example 183, 1-isopropyl-N-((2-methoxypyridin-3-yl)methyl)-3-methyl-5-(2-(trifluoromethyl)pyridin-3-yl)-1H-pyrazolo[4,3-b]pyridin-7-amine], the half-inhibitory concentration (IC50) stood at 350 nM in assay [4] (setting [5]); 290 nM in assay [1] (setting [5]); 38 nM in assay [3] (read-out: PDE1B, IC50).
As to `Cc1nn(C(C)C)c2c(NCc3cnn(C)c3)cc(-n3cncn3)nc12` [Example 185, 1-isopropyl-3-methyl-N-((1-methyl-1H-pyrazol-4-yl)methyl)-5-(1H-1,2,4-triazol-1-yl)-1H-pyrazolo[4,3-b]pyridin-7-amine], the half-maximal inhibitory concentration (IC50) in assay [4] (setting [5]) turned out to be 92 nM; in assay [1] (setting [5]), 100 nM; in assay [3] (read-out: PDE1B, IC50) it was 24 nM.
In the same order, the values of `Cc1nn(C(C)C)c2c(NCc3ncn(C)n3)cc(-c3ccc[nH]c3=O)nc12` [Example 186, 3-[1-isopropyl-3-methyl-7-[(1-methyl-1,2,4-triazol-3-yl)methylamino]pyrazolo[4,3-b]pyridin-5-yl]-1H-pyridin-2-one] are 130 nM, 64 nM and 15 nM.
For `Cc1nn(C(C)C)c2c(NCc3cc[nH]n3)cc(-c3ccc[nH]c3=O)nc12` [Example 187, 3-[1-isopropyl-3-methyl-7-(1H-pyrazol-3-ylmethylamino)pyrazolo[4,3-b]pyridin-5-yl]-1H-pyridin-2-one], in that order: 250 nM, 140 nM and 18 nM.
For the compound `COc1ncccc1CNc1cc(-c2cccnc2OC(F)F)nc2c(C)nn(C(C)C)c12` [Example 188, 5-[2-(difluoromethoxy)-3-pyridyl]-1-isopropyl-N-[(2-methoxy-3-pyridyl)methyl]-3-methyl-pyrazolo[4,3-b]pyridin-7-amine], the half-inhibitory concentration (IC50) in assay [4] (setting [5]) stood at 60 nM; in assay [1] (setting [5]) it was 61 nM; in assay [3] (read-out: PDE1B, IC50), 7.8 nM.
For `CCOc1ncccc1-c1cc(NCc2nccc(OC)n2)c2c(n1)c(C)nn2C(C)C` [Example 189, 5-(2-ethoxy-3-pyridyl)-1-isopropyl-N-[(4-methoxypyrimidin-2-yl)methyl]-3-methyl-pyrazolo[4,3-b]pyridin-7-amine], in that order: 19 nM, 3.9 nM and 0.49 nM.
In the case of `CCOc1ncccc1-c1cc(NCc2cncnc2OC)c2c(n1)c(C)nn2C(C)C` [Example 190, 5-(2-ethoxy-3-pyridyl)-1-isopropyl-N-[(4-methoxypyrimidin-5-yl)methyl]-3-methyl-pyrazolo[4,3-b]pyridin-7-amine], the IC50 in assay [4] (setting [5]) is 94 nM; in assay [1] (setting [5]) it was 74 nM; in assay [3] (read-out: PDE1B, IC50) it was 7.9 nM.
For `CCOc1ncccc1CNc1cc(-c2cccnc2OCC)nc2c(C)nn(C(C)C)c12` [Example 191, 5-(2-ethoxy-3-pyridyl)-N-[(2-ethoxy-3-pyridyl)methyl]-1-isopropyl-3-methyl-pyrazolo[4,3-b]pyridin-7-amine], in that order: 400 nM, 160 nM and 10 nM.
On to `COc1ccc(CNc2cc(-c3cccnc3N(C)C)nc3c(C)nn(C(C)C)c23)cc1` [Example 192, 5-[2-(dimethylamino)-3-pyridyl]-1-isopropyl-N-[(4-methoxyphenyl)methyl]-3-methyl-pyrazolo[4,3-b]pyridin-7-amine], for which the IC50 in assay [4] (setting [5]) is 490 nM; in assay [1] (setting [5]), 630 nM; in assay [3] (read-out: PDE1B, IC50), 71 nM.
For `Cc1nocc1-c1cc(NCc2cnn(C)c2)c2c(n1)c(C)nn2C(C)C` [Example 194, 1-isopropyl-3-methyl-5-(3-methylisoxazol-4-yl)-N-[(1-methylpyrazol-4-yl)methyl]pyrazolo[4,3-b]pyridin-7-amine], in that order: 21 nM, 95 nM and 23 nM.
In the same order, the values of `Cc1nn(C(C)C)c2c(NCc3cnn(C)c3)cc(-c3ncnn3C)nc12` [Example 195, 1-isopropyl-3-methyl-5-(1-methyl-1H-1,2,4-triazol-5-yl)-N-((1-methyl-1H-pyrazol-4-yl)methyl)-1H-pyrazolo[4,3-b]pyridin-7-amine] are 160 nM, 420 nM and 110 nM.
In the same order, the values of `CCOc1ncccc1-c1cc(NCc2cccnc2OC)c2c(n1)c(C)nn2C1COC1` [Example 197, 5-(2-ethoxy-3-pyridyl)-N-[(2-methoxy-3-pyridyl)methyl]-3-methyl-1-(oxetan-3-yl)pyrazolo[4,3-b]pyridin-7-amine] are 190 nM, 190 nM and 13 nM.
In the case of `CCN(C)c1ncccc1-c1cc(NCc2ccc(OC)cc2)c2c(n1)c(C)nn2C(C)C` [Example 198, 5-(2-(ethyl(methyl)amino)pyridin-3-yl)-1-isopropyl-N-(4-methoxybenzyl)-3-methyl-1H-pyrazolo[4,3-b]pyridin-7-amine], the IC50 in assay [4] (setting [5]) worked out at 1000 nM; in assay [1] (setting [5]) it was 1100 nM; in assay [3] (read-out: PDE1B, IC50), 240 nM.
In the same order, the values of `CCOc1ncccc1-c1cc(NCc2cnn(C)c2)c2c(n1)c(CF)nn2C(C)C` [Example 199, 5-(2-ethoxypyridin-3-yl)-3-(fluoromethyl)-1-isopropyl-N-((1-methyl-1H-pyrazol-4-yl)methyl)-1H-pyrazolo[4,3-b]pyridin-7-amine] are 26 nM, 7.4 nM and 0.75 nM.
For `Cc1ncoc1-c1cc(NCc2cnn(C)c2)c2c(n1)c(C)nn2C(C)C` [Example 200, 1-isopropyl-3-methyl-N-((1-methyl-1H-pyrazol-4-yl)methyl)-5-(4-methyloxazol-5-yl)-1H-pyrazolo[4,3-b]pyridin-7-amine], in that order: 110 nM, 98 nM and 18 nM.
`Cc1nn(C(C)C)c2c(NCc3cnn(C)c3)cc(-c3nncn3C)nc12` [Example 203, 1-isopropyl-3-methyl-N-[(1-methylpyrazol-4-yl)methyl]-5-(4-methyl-1,2,4-triazol-3-yl)pyrazolo[4,3-b]pyridin-7-amine]: the IC50 stood at 420 nM in assay [4] (setting [5]); 410 nM in assay [1] (setting [5]); 180 nM in assay [3] (read-out: PDE1B, IC50).
